Nine molecules from patent US10457707B2, “Substituted urea depsipeptide analogs as activators of the CLPP endopeptidase” (priority 2015, dated 2019) can be followed below.

Common to all, as to type: cell-based
Data set [1] has as its system Streptococcus pyogenes, ATCC 700294. Briefly: Minimal inhibitory concentration assay (microbroth dilution). Summed up: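 CLSI broth microdilution: two-fold serial compound dilutions in appropriate broth, inoculated and incubated aerobically overnight at 37° C. MIC read visually as lowest concentration preventing bacterial growth.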
(In general: Dilution methods test growth across graded concentrations, often in twofold steps.)

The test system of data set [2] is Bacillus subtilis, ATCC 23857. The data set is described as above. An outline of the steps: (§1)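 CLSI broth microdilution; 2-fold series from 200 μM final; inoculum ~10^5 cfu/mL; 37 °C, aerobic, overnight; visual MIC = lowest conc. without growth. The ClpP-inactivated USA 300 strain is the comparator for ClpP-dependent killing.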
The subject of data set [3] is Staphylococcus aureus, ATCC 29213. The description is as above. The conditions noted are these: ATCC29213, read-out: Minimal Inhibitory Concentrations S. aureus ATCC 29213. An outline of the steps: as §1
The test system of data set [4] is Staphylococcus aureus, NRS70. Described as above. An outline of the steps: as §1
The nature of data set [5]: Cytotoxicity assay (CellTiter-Glo cell viability, 72 hours). The conditions noted are these: African green monkey. An outline of the steps:
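Vero cells, 5000/well, grown overnight at 37° C, 5% CO2 in DMEM with 10% FBS, then exposed to serial compound dilutions or DMSO for 72 hours. Viability read by CellTiter-Glo luminescence. IC50 from duplicate wells, reported as range over two independent experiments.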

The mark [6] stands for this setting: Streptococcus pyogenes, ATCC700294, read-out: Minimal Inhibitory Concentrations S. pyogenes ATCC 700294.
[7] abbreviates: Bacillus subtilis, ATCC23857, read-out: Minimal Inhibitory Concentrations B. subtilis ATCC 23857.
Where [8] appears, read: Staphylococcus aureus, NRS70, read-out: Minimal Inhibitory Concentrations S. aureus NRS70.
Setting [9] is: Vero cells, 72 hours, growth inhibition, read-out: Cytotoxicity IC50.
Where [10] appears, read: Streptococcus pyogenes, ATCC700294; read-out: Minimal Inhibitory Concentrations S. pyogenes ATCC 700294.
Setting [11] is: Bacillus subtilis, ATCC23857; read-out: Minimal Inhibitory Concentrations B. subtilis ATCC 23857.
[12] abbreviates: Staphylococcus aureus, NRS70; read-out: Minimal Inhibitory Concentrations S. aureus NRS70.

Molecules are shown by their SMILES. ≈ marks a conversion by molar mass, not a printed value. Read-outs that look alike come from different tables or passages of the source. *1 amine or outer side, *2 acyl side, *3 side chain or, on linkers, in order; H or OH if unused. Where a SMILES comes first, the peptide text is derived from it. Bridges are numbered along the chain shown (N, C = ends). [ ]: non-standard residue; d: D form. The star is where a group is joined. ξ: configuration not given here. Phe(3,5-F2) = N[C@@H](Cc1cc(F)cc(F)c1)C(=O)O; NMepT = CN[C@H](C(=O)O)[C@@H](C)OP(=O)(O)O; NH(4-OCF3-phenyl) = FC(F)(F)Oc1ccc(N*)cc1; Pro(4S-Me) = C[C@@H]1CN[C@H](C(=O)O)C1; Pro(4R-Me) = C[C@H]1CN[C@H](C(=O)O)C1; ξPro(4R-OH) = O=C(O)C1C[C@@H](O)CN1; ξPro(4R-Me) = C[C@H]1CNC(C(=O)O)C1; NH(4-Et-phenyl) = CCc1ccc(N*)cc1; NMeT = CN[C@H](C(=O)O)[C@@H](C)O; NH(4-Me-phenyl) = Cc1ccc(N*)cc1; aThr = C[C@H](O)[C@H](N)C(=O)O; Pip = O=C(O)[C@@H]1CCCCN1; NMeA = CN[C@@H](C)C(=O)O; CO = O=C([*:1])[*:2]

As a reminder, the IC50 is the midpoint of a concentration-inhibition curve. Regarding `Cc1ccc(NC(=O)N[C@@H](Cc2cc(F)cc(F)c2)C(=O)N[C@@H]2C(=O)N3C[C@H](O)CC3C(=O)N(C)[C@@H](C)C(=O)N[C@@H](C)C(=O)N3C[C@H](C)CC3C(=O)O[C@H]2C)cc1` (stereo partly drawn) [Compound 31, (S)-3-(3,5-difluorophenyl)-N-((2S,6S,9S,11aS,13R,17S,18S,20aS)-13-hydroxy-2,6,9,10,18-pentamethyl-5,8,11,16,20-pentaoxohexadecahydro-1H,5H,16H-dipyrrolo[2,1-c:2′,1′-l][1]oxa[4,7,10,13]tetraazacyclohexadecin-17-yl)-2-(3-(p-tolyl)ureido)propanamide] ({NH(4-Me-phenyl)-CO}-[Phe(3,5-F2)][aThr][ξPro(4R-OH)][NMeA]A[ξPro(4R-Me)]; ester 2-C), the MIC in data set [1] (setting [6]) is 0.78 µM (≈ 0.622 µg/mL); in data set [2] (setting [7]), 0.39 µM (≈ 0.311 µg/mL); in data set [3], 0.39 µM (≈ 0.311 µg/mL); in data set [4] (setting [8]), 0.39 µM (≈ 0.311 µg/mL). The IC50 at 72 h in data set [5] (setting [9]) was above 100 µM.
Consider `Cc1ccc(NC(=O)N[C@@H](Cc2cc(F)cc(F)c2)C(=O)N[C@@H]2C(=O)N3CCC[C@H]3C(=O)N(C)[C@@H]([C@@H](C)O)C(=O)N[C@@H](C)C(=O)N3C[C@@H](C)C[C@H]3C(=O)O[C@H]2C)cc1` [Compound 35, (S)-3-(3,5-difluorophenyl)-N-((2S,6S,9S,11aS,17S,18S,20aS)-9-((R)-1-hydroxyethyl)-2,6,10,18-tetramethyl-5,8,11,16,20-pentaoxohexadecahydro-1H,5H,16H-dipyrrolo[2,1-c:2′,1′-l][1]oxa[4,7,10,13]tetraazacyclohexadecin-17-yl)-2-(3-(p-tolyl)ureido)propanamide] ({NH(4-Me-phenyl)-CO}-[Phe(3,5-F2)][aThr]P[NMeT]A[Pro(4S-Me)]; ester 2-C), for which the MIC was found to be 0.39 µM (≈ 0.317 µg/mL) in data set [1] (setting [6]), 0.2 µM (≈ 0.162 µg/mL) in data set [2] (setting [7]), 0.2 µM (≈ 0.162 µg/mL) in data set [3] and 0.1 µM (≈ 0.0812 µg/mL) in data set [4] (setting [8]). In data set [5] (setting [9]), the IC50 at 72 h is 55.7 ± 3.6 µM.
For the molecule `C[C@H]1C[C@H]2C(=O)O[C@@H](C)[C@H](NC(=O)[C@H](Cc3cc(F)cc(F)c3)NC(=O)Nc3ccc(OC(F)(F)F)cc3)C(=O)N3CCC[C@H]3C(=O)N(C)[C@@H]([C@@H](C)O)C(=O)N[C@@H](C)C(=O)N2C1` [Compound 36, (S)-3-(3,5-difluorophenyl)-N-((2S,6S,9S,11aS,17S,18S,20aS)-9-((R)-1-hydroxyethyl)-2,6,10,18-tetramethyl-5,8,11,16,20-pentaoxohexadecahydro-1H,5H,16H-dipyrrolo[2,1-c:2′,1′-l][1]oxa[4,7,10,13]tetraazacyclohexadecin-17-yl)-2-(3-(4-(trifluoromethoxy)phenyl)ureido)propanamide] ({NH(4-OCF3-phenyl)-CO}-[Phe(3,5-F2)][aThr]P[NMeT]A[Pro(4S-Me)]; ester 2-C), the MIC in data set [1] (setting [10]) was found to be 0.2 µM (≈ 0.176 µg/mL); in data set [2] (setting [11]) it was 0.1 µM (≈ 0.0882 µg/mL); in data set [3] it was 0.1 µM (≈ 0.0882 µg/mL); in data set [4] (setting [12]), 0.05 µM (≈ 0.0441 µg/mL). In data set [5], this molecule came in with an IC50 at 72 h of 25.4 ± 1.8 µM.
Consider `CCc1ccc(NC(=O)N[C@@H](Cc2cc(F)cc(F)c2)C(=O)N[C@@H]2C(=O)N3CCC[C@H]3C(=O)N(C)[C@@H]([C@@H](C)O)C(=O)N[C@@H](C)C(=O)N3C[C@@H](C)C[C@H]3C(=O)O[C@H]2C)cc1` [Compound 37, (S)-3-(3,5-difluorophenyl)-2-(3-(4-ethylphenyl)ureido)-N-((2S,6S,9S,11aS,17S,18S,20aS)-9-((R)-1-hydroxyethyl)-2,6,10,18-tetramethyl-5,8,11,16,20-pentaoxohexadecahydro-1H,5H,16H-dipyrrolo[2,1-c:2′,1′-l][1]oxa[4,7,10,13]tetraazacyclohexadecin-17-yl)propanamide] ({NH(4-Et-phenyl)-CO}-[Phe(3,5-F2)][aThr]P[NMeT]A[Pro(4S-Me)]; ester 2-C), for which the MIC in data set [1] (setting [10]) stood at 0.1 µM (≈ 0.0826 µg/mL); in data set [2] (setting [11]) it was 0.05 µM (≈ 0.0413 µg/mL); in data set [3], 0.1 µM (≈ 0.0826 µg/mL); in data set [4] (setting [12]), 0.1 µM (≈ 0.0826 µg/mL). In addition, inhibition in data set [5] was half-maximal at 33.8 ± 1.6 µM (IC50 at 72 h).
Turning to `Cc1ccc(NC(=O)N[C@@H](Cc2cc(F)cc(F)c2)C(=O)N[C@@H]2C(=O)N3CCC[C@H]3C(=O)N(C)[C@@H]([C@@H](C)O)C(=O)N[C@@H](C)C(=O)N3C[C@H](C)C[C@H]3C(=O)O[C@H]2C)cc1` [Compound 38, (S)-3-(3,5-difluorophenyl)-N-((2R,6S,9S,11aS,17S,18S,20aS)-9-((R)-1-hydroxyethyl)-2,6,10,18-tetramethyl-5,8,11,16,20-pentaoxohexadecahydro-1H,5H,16H-dipyrrolo[2,1-c:2′,1′-l][1]oxa[4,7,10,13]tetraazacyclohexadecin-17-yl)-2-(3-(p-tolyl)ureido)propanamide] ({NH(4-Me-phenyl)-CO}-[Phe(3,5-F2)][aThr]P[NMeT]A[Pro(4R-Me)]; ester 2-C), the MIC in data set [1] (setting [6]) was found to be 0.1 µM (≈ 0.0812 µg/mL); in data set [2] (setting [7]), 0.05 µM (≈ 0.0406 µg/mL); in data set [3], 0.05 µM (≈ 0.0406 µg/mL); in data set [4] (setting [8]), 0.05 µM (≈ 0.0406 µg/mL). In addition, in data set [5] (setting [9]), the IC50 at 72 h was 46.1 ± 5.5 µM.
For the molecule `C[C@@H]1C[C@H]2C(=O)O[C@@H](C)[C@H](NC(=O)[C@H](Cc3cc(F)cc(F)c3)NC(=O)Nc3ccc(OC(F)(F)F)cc3)C(=O)N3CCC[C@H]3C(=O)N(C)[C@@H]([C@@H](C)O)C(=O)N[C@@H](C)C(=O)N2C1` [Compound 41, (S)-3-(3,5-difluorophenyl)-N-((2R,6S,9S,11aS,17S,18S,20aS)-9-((R)-1-hydroxyethyl)-2,6,10,18-tetramethyl-5,8,11,16,20-pentaoxohexadecahydro-1H,5H,16H-dipyrrolo[2,1-c:2′,1′-l][1]oxa[4,7,10,13]tetraazacyclohexadecin-17-yl)-2-(3-(4-(trifluoromethoxy)phenyl)ureido)propanamide] ({NH(4-OCF3-phenyl)-CO}-[Phe(3,5-F2)][aThr]P[NMeT]A[Pro(4R-Me)]; ester 2-C), the MIC is 0.1 µM (≈ 0.0882 µg/mL) in data set [1] (setting [10]), 0.01 µM (≈ 0.00882 µg/mL) in data set [2] (setting [11]), 0.02 µM (≈ 0.0176 µg/mL) in data set [3] and 0.01 µM (≈ 0.00882 µg/mL) in data set [4] (setting [12]). The IC50 at 72 h in data set [5] was found to be 23.9 ± 2 µM.
Regarding `CCc1ccc(NC(=O)N[C@@H](Cc2cc(F)cc(F)c2)C(=O)N[C@@H]2C(=O)N3CCC[C@H]3C(=O)N(C)[C@@H]([C@@H](C)O)C(=O)N[C@@H](C)C(=O)N3C[C@H](C)C[C@H]3C(=O)O[C@H]2C)cc1` [Compound 42, (S)-3-(3,5-difluorophenyl)-2-(3-(4-ethylphenyl)ureido)-N-((2R,6S,9S,11aS,17S,18S,20aS)-9-((R)-1-hydroxyethyl)-2,6,10,18-tetramethyl-5,8,11,16,20-pentaoxohexadecahydro-1H,5H,16H-dipyrrolo[2,1-c:2′,1′-l][1]oxa[4,7,10,13]tetraazacyclohexadecin-17-yl)propanamide] ({NH(4-Et-phenyl)-CO}-[Phe(3,5-F2)][aThr]P[NMeT]A[Pro(4R-Me)]; ester 2-C), the MIC in data set [1] (setting [10]) was found to be 0.05 µM (≈ 0.0413 µg/mL); in data set [2] (setting [11]), 0.01 µM (≈ 0.00826 µg/mL); in data set [3] it was 0.05 µM (≈ 0.0413 µg/mL); in data set [4] (setting [12]), 0.02 µM (≈ 0.0165 µg/mL). The same molecule returned an IC50 at 72 h in data set [5] of 24.9 ± 2.6 µM.
For `Cc1ccc(NC(=O)N[C@@H](Cc2cc(F)cc(F)c2)C(=O)N[C@@H]2C(=O)N3CCC[C@H]3C(=O)N(C)[C@@H]([C@@H](C)OP(=O)(O)O)C(=O)N[C@@H](C)C(=O)N3C[C@@H](C)C[C@H]3C(=O)O[C@H]2C)cc1` [Compound 188, (R)-1-((2S,6S,9S,11aS,17S,18S,20aS)-17-((S)-3-(3,5-difluorophenyl)-2-(3-(p-tolyl)ureido)propanamido)-2,6,10,18-tetramethyl-5,8,11,16,20-pentaoxohexadecahydro-1H,5H,16H-dipyrrolo[2,1-c:2′,1′-l][1]oxa[4,7,10,13]tetraazacyclohexadecin-9-yl)ethyl dihydrogen phosphate] ({NH(4-Me-phenyl)-CO}-[Phe(3,5-F2)][aThr]P[NMepT]A[Pro(4S-Me)]; ester 2-C), the MIC is 50 µM in data set [1] (setting [6]), 13 µM in data set [2] (setting [7]), 25 µM in data set [3] and 25 µM in data set [4] (setting [8]). In data set [5] (setting [9]), the IC50 at 72 h is above 100 µM.
On to `Cc1ccc(NC(=O)N[C@@H](Cc2cc(F)cc(F)c2)C(=O)N[C@@H]2C(=O)N3CCC[C@H]3C(=O)N3CCCC[C@H]3C(=O)N[C@@H](C)C(=O)N3C[C@H](C)C[C@H]3C(=O)O[C@H]2C)cc1` [Compound 209, (S)-3-(3,5-difluorophenyl)-2-(3-(p-tolyl)ureido)-N-((2R,6S,8aS,14aS,20S,21S,23aS)-2,6,21-trimethyl-5,8,14,19,23-pentaoxooctadecahydro-1H,5H,14H,19H-pyrido[2,1-i]dipyrrolo[2,1-c:2′,1′-l][1]oxa[4,7,10,13]tetraazacyclohexadecin-20-yl)propanamide] ({NH(4-Me-phenyl)-CO}-[Phe(3,5-F2)][aThr]P[Pip]A[Pro(4R-Me)]; ester 2-C), for which the results for the MIC in data set [1] (setting [6]), in data set [2] (setting [7]) and in data set [3] were 0.2 µM (≈ 0.162 µg/mL), 0.05 µM (≈ 0.0404 µg/mL) and 0.05 µM (≈ 0.0404 µg/mL), respectively. Also, the IC50 at 72 h in data set [5] (setting [9]) stood at 40 ± 4.1 µM.
